Experimental data from US20220169628A1 (University of Florida Research Foundation, Incorporated, priority 2019, published 2022).

Legend:
Format in all cases: cell-based
MOLT-4 cells [1] = assay: Cell viability assay, MTS, 72 h, MOLT-4; conditions: Homo sapiens; MOLT-4 cells, 72 h, MTS
Description: (§1) Cancer cells from different tissue origins including acute lymphoblastic leukemia (MOLT4 and RS4; 11), small cell lung cancer (NCI-H146 or simply H146), and multiple myeloma (EJM and H929) were incubated with increasing concentrations of Examples 1-21 or ABT-263 for 72 h. Cell viability was measured by tetrazolium-based MTS assay. 5×10^4 to 1×10^5 suspension cells or 3×10^3 to 5×10^3 adherent cells were seeded and treated in 96-well plates for 72 h. The EC50 values of individual agents were calculated with GraphPad Prism.

RS4 cells = assay: Cell viability assay, MTS, 72 h, RS4;11; conditions: Homo sapiens
Description: as §1

MOLT-4 cells [2] = assay: Cell viability assay, MTS, 48 h, MOLT-4; conditions: Homo sapiens, MOLT-4, 48 h, 48 hours, read-out: IC50 (48 hours) MOLT-4
Description: (§2) Acute lymphoblastic leukemia cells (MOLT-4 and RS4; 11) or small cell lung cancer (NCI-H146 or simply H146) were incubated with increasing concentrations of Bcl-xL degraders for 48 h. Cell viability was measured by tetrazolium-based MTS assay.

RS4;11 cells = assay: Cell viability assay, MTS, 48 h, RS4;11; conditions: Homo sapiens, RS4-11, 48 h, 48 hours, read-out: IC50 (48 hours) RS4;11
Description: as §2

IC50 (MOLT-4 cells [1]) [µM]	IC50 (RS4 cells) [µM]	IC50 (MOLT-4 cells [2]) [µM]	IC50 (RS4;11 cells) [µM]	SMILES
0.973	0.404	–	–	Cc1ncsc1-c1ccc([C@H](C)NC(=O)[C@@H]2C[C@@H](O)CN2C(=O)[C@@H](NC(=O)COCCOCCOCCOCC(=O)NCC2(C)CCC(c3ccc(Cl)cc3)=C(CN3CCN(c4ccc(C(=O)NS(=O)(=O)c5ccc(N[C@H](CCN6CCOCC6)CSc6ccccc6)c(S(=O)(=O)C(F)(F)F)c5)cc4)CC3)C2)C(C)(C)C)cc1 (stereo partly drawn) [Compound 59, N^1-((4′-chloro-4-methyl-6-((4-(4-(((4-(((R)-4-morpholino-1-(phenylthio)butan-2-yl)amino)-3-((trifluoromethyl)sulfonyl)phenyl)sulfonyl)carbamoyl)phenyl)piperazin-1-yl)methyl)-2,3,4,5-tetrahydro-[1,1′-biphenyl]-4-yl)methyl)-N^14—((S)-1-((2S,4R)-4-hydroxy-2-(((S)-1-(4-(4-methylthiazol-5-yl)phenyl)ethyl)carbamoyl)pyrrolidin-1-yl)-3,3-dimethyl-1-oxobutan-2-yl)-3,6,9,12-tetraoxatetradecanediamide]
–	–	> 0.5	> 0.5	Cc1ncsc1-c1ccc([C@H](C)NC(=O)[C@@H]2C[C@@H](O)CN2C(=O)[C@@H](NC(=O)CCC(=O)N2CCC(c3ccc(Cl)cc3)=C(CN3CCN(c4ccc(C(=O)NS(=O)(=O)c5ccc(N[C@H](CCN6CCOCC6)CSc6ccccc6)c(S(=O)(=O)C(F)(F)F)c5)cc4)CC3)C2)C(C)(C)C)cc1 [compound 79, (2S,4R)-1-((S)-2-(4-(4-(4-chlorophenyl)-5-((4-(4-(((4-(((R)-4-morpholino-1-(phenylthio)butan-2-yl)amino)-3-((trifluoromethyl)sulfonyl)phenyl)sulfonyl)carbamoyl)phenyl)piperazin-1-yl)methyl)-3,6-dihydropyridin-1(2H)-yl)-4-oxobutanamido)-3,3-dimethylbutanoyl)-4-hydroxy-N—((S)-1-(4-(4-methylthiazol-5-yl)phenyl)ethyl)pyrrolidine-2-carboxamide]
–	–	0.15 to 0.5	< 0.05	Cc1ncsc1-c1ccc([C@H](C)NC(=O)[C@@H]2C[C@@H](O)CN2C(=O)[C@@H](NC(=O)CCCCCCCC(=O)NCCN(C)CC2(C)CCC(c3ccc(Cl)cc3)=C(CN3CCN(c4ccc(C(=O)NS(=O)(=O)c5ccc(N[C@H](CCN6CCOCC6)CSc6ccccc6)c(S(=O)(=O)C(F)(F)F)c5)cc4)CC3)C2)C(C)(C)C)cc1 (stereo partly drawn) [compound 62]
–	–	< 0.05	0.05 to 0.15	CC1(CNC(=O)CCCCCCCCNc2cccc3c2C(=O)N(C2CCC(=O)NC2=O)C3=O)CCC(c2ccc(Cl)cc2)=C(CN2CCN(c3ccc(C(=O)NS(=O)(=O)c4ccc(N[C@H](CCN5CCOCC5)CSc5ccccc5)c(S(=O)(=O)C(F)(F)F)c4)cc3)CC2)C1 (stereo partly drawn) [compound 74, 4-(4-((4′-chloro-4-((9-((2-(2,6-dioxopiperidin-3-yl)-1,3-dioxoisoindolin-4-yl)amino)nonanamido)methyl)-4-methyl-3,4,5,6-tetrahydro-[1,1′-biphenyl]-2-yl)methyl)piperazin-1-yl)-N-((4-(((R)-4-morpholino-1-(phenylthio)butan-2-yl)amino)-3-((trifluoromethyl)sulfonyl)phenyl)sulfonyl)benzamide]
–	–	0.15 to 0.5	0.15 to 0.5	Cc1ncsc1-c1ccc([C@H](C)NC(=O)[C@@H]2C[C@@H](O)CN2C(=O)[C@@H](NC(=O)CCCCCC(=O)NCCN(C)CC2(C)CCC(c3ccc(Cl)cc3)=C(CN3CCN(c4ccc(C(=O)NS(=O)(=O)c5ccc(N[C@H](CCN6CCOCC6)CSc6ccccc6)c(S(=O)(=O)C(F)(F)F)c5)cc4)CC3)C2)C(C)(C)C)cc1 (stereo partly drawn) [compound 60]
–	–	< 0.05	< 0.05	CC1(CNC(=O)CCCCCCCNc2cccc3c2C(=O)N(C2CCC(=O)NC2=O)C3=O)CCC(c2ccc(Cl)cc2)=C(CN2CCN(c3ccc(C(=O)NS(=O)(=O)c4ccc(N[C@H](CCN5CCOCC5)CSc5ccccc5)c(S(=O)(=O)C(F)(F)F)c4)cc3)CC2)C1 (stereo partly drawn) [compound 73, 4-(4-((4′-chloro-4-((8-((2-(2,6-dioxopiperidin-3-yl)-1,3-dioxoisoindolin-4-yl)amino)octanamido)methyl)-4-methyl-3,4,5,6-tetrahydro-[1,1′-biphenyl]-2-yl)methyl)piperazin-1-yl)-N-((4-(((R)-4-morpholino-1-(phenylthio)butan-2-yl)amino)-3-((trifluoromethyl)sulfonyl)phenyl)sulfonyl)benzamide]
–	–	0.05 to 0.15	< 0.05	Cc1ncsc1-c1ccc([C@H](C)NC(=O)[C@@H]2C[C@@H](O)CN2C(=O)[C@@H](NC(=O)CCCCCCC(=O)N2C[C@@H]3C[C@H]2CN3CC2(C)CCC(c3ccc(Cl)cc3)=C(CN3CCN(c4ccc(C(=O)NS(=O)(=O)c5ccc(N[C@H](CCN6CCOCC6)CSc6ccccc6)c(S(=O)(=O)C(F)(F)F)c5)cc4)CC3)C2)C(C)(C)C)cc1 (stereo partly drawn) [degrader #45]
–	–	0.05 to 0.15	0.05 to 0.15	Cc1ncsc1-c1ccc([C@H](C)NC(=O)[C@@H]2C[C@@H](O)CN2C(=O)[C@@H](NC(=O)CN2CCN(CC3(C)CCC(c4ccc(Cl)cc4)=C(CN4CCN(c5ccc(C(=O)NS(=O)(=O)c6ccc(N[C@H](CCN7CCOCC7)CSc7ccccc7)c(S(=O)(=O)C(F)(F)F)c6)cc5)CC4)C3)CC2)C(C)(C)C)cc1 (stereo partly drawn) [compound 67, (2S,4R)-1-((2S)-2-(2-(4-((4′-chloro-4-methyl-6-((4-(4-(((4-(((R)-4-morpholino-1-(phenylthio)butan-2-yl)amino)-3-((trifluoromethyl)sulfonyl)phenyl)sulfonyl)carbamoyl)phenyl)piperazin-1-yl)methyl)-2,3,4,5-tetrahydro-[1,1′-biphenyl]-4-yl)methyl)piperazin-1-yl)acetamido)-3,3-dimethylbutanoyl)-4-hydroxy-N—((S)-1-(4-(4-methylthiazol-5-yl)phenyl)ethyl)pyrrolidine-2-carboxamide]
–	–	< 0.05	< 0.05	Cc1ncsc1-c1ccc([C@H](C)NC(=O)[C@@H]2C[C@@H](O)CN2C(=O)[C@@H](NC(=O)CCCCCCCC(=O)N2CCN(CC3(C)CCC(c4ccc(Cl)cc4)=C(CN4CCN(c5ccc(C(=O)NS(=O)(=O)c6ccc(N[C@H](CCN7CCOCC7)CSc7ccccc7)c(S(=O)(=O)C(F)(F)F)c6)cc5)CC4)C3)CC2)C(C)(C)C)cc1 (stereo partly drawn) [degrader #18, (2S,4R)-1-((2S)-2-(9-(4-((4′-chloro-4-methyl-6-((4-(4-(((4-(((R)-4-morpholino-1-(phenylthio)butan-2-yl)amino)-3-((trifluoromethyl)sulfonyl)phenyl)sulfonyl)carbamoyl)phenyl)piperazin-1-yl)methyl)-2,3,4,5-tetrahydro-[1,1′-biphenyl]-4-yl)methyl)piperazin-1-yl)-9-oxononanamido)-3,3-dimethylbutanoyl)-4-hydroxy-N—((S)-1-(4-(4-methylthiazol-5-yl)phenyl)ethyl)pyrrolidine-2-carboxamide]
–	–	< 0.05	< 0.05	CC1(CNC(=O)COCCOCCOCCNc2cccc3c2C(=O)N(C2CCC(=O)NC2=O)C3=O)CCC(c2ccc(Cl)cc2)=C(CN2CCN(c3ccc(C(=O)NS(=O)(=O)c4ccc(N[C@H](CCN5CCOCC5)CSc5ccccc5)c(S(=O)(=O)C(F)(F)F)c4)cc3)CC2)C1 (stereo partly drawn) [compound 78, 4-(4-((4′-chloro-4-(13-((2-(2,6-dioxopiperidin-3-yl)-1,3-dioxoisoindolin-4-yl)amino)-3-oxo-5,8,11-trioxa-2-azatridecyl)-4-methyl-3,4,5,6-tetrahydro-[1,1′-biphenyl]-2-yl)methyl)piperazin-1-yl)-N-((4-(((R)-4-morpholino-1-(phenylthio)butan-2-yl)amino)-3-((trifluoromethyl)sulfonyl)phenyl)sulfonyl)benzamide]
–	–	< 0.05	< 0.05	Cc1ncsc1-c1ccc([C@H](C)NC(=O)[C@@H]2C[C@@H](O)CN2C(=O)[C@@H](NC(=O)CCCCCCC(=O)N2CCN(CC3(C)CCC(c4ccc(Cl)cc4)=C(CN4CCN(c5ccc(C(=O)NS(=O)(=O)c6ccc(N[C@H](CCN7CCOCC7)CSc7ccccc7)c(S(=O)(=O)C(F)(F)F)c6)cc5)CC4)C3)CC2)C(C)(C)C)cc1 (stereo partly drawn) [degrader #17, (2S,4R)-1-((2S)-2-(8-(4-((4′-chloro-4-methyl-6-((4-(4-(((4-(((R)-4-morpholino-1-(phenylthio)butan-2-yl)amino)-3-((trifluoromethyl)sulfonyl)phenyl)sulfonyl)carbamoyl)phenyl)piperazin-1-yl)methyl)-2,3,4,5-tetrahydro-[1,1′-biphenyl]-4-yl)methyl)piperazin-1-yl)-8-oxooctanamido)-3,3-dimethylbutanoyl)-4-hydroxy-N—((S)-1-(4-(4-methylthiazol-5-yl)phenyl)ethyl)pyrrolidine-2-carboxamide]
–	–	< 0.05	< 0.05	Cc1ncsc1-c1ccc([C@H](C)NC(=O)[C@@H]2C[C@@H](O)CN2C(=O)[C@@H](NC(=O)CCCCCN2CCN(CC3(C)CCC(c4ccc(Cl)cc4)=C(CN4CCN(c5ccc(C(=O)NS(=O)(=O)c6ccc(N[C@H](CCN7CCOCC7)CSc7ccccc7)c(S(=O)(=O)C(F)(F)F)c6)cc5)CC4)C3)CC2)C(C)(C)C)cc1 (stereo partly drawn) [Compound 55, N^1-((4′-chloro-4-methyl-6-((4-(4-(((4-(((R)-4-morpholino-1-(phenylthio)butan-2-yl)amino)-3-((trifluoromethyl)sulfonyl)phenyl)sulfonyl)carbamoyl)phenyl)piperazin-1-yl)methyl)-2,3,4,5-tetrahydro-[1,1′-biphenyl]-4-yl)methyl)-N^2—((S)-1-((2S,4R)-4-hydroxy-2-(((S)-1-(4-(4-methylthiazol-5-yl)phenyl)ethyl)carbamoyl)pyrrolidin-1-yl)-3,3-dimethyl-1-oxobutan-2-yl)dodecanediamide]
